Here are results for five molecules from ChEMBL document CHEMBL1158286, “Molluscicidal Triterpenoid Glycosides of Dialium guineense” (1996).

For this experiment, the system named is Biomphalaria glabrata. The experiment is described as follows: Molluscicidal activity against Biomphalaria glabrata assessed as minimum concentration required to cause mortality measured after 24 hrs. It counts as functional.

The structures appear in SMILES notation.

For `CC1(C)CC[C@]2(C(=O)O)CC[C@]3(C)C(=CC[C@@H]4[C@@]5(C)CC[C@H](O[C@@H]6O[C@H](C(=O)O)[C@@H](O)[C@H](O)[C@H]6O)C(C)(C)[C@@H]5CC[C@]43C)[C@@H]2C1`, the Activity is 2 ppm.

On to `C[C@@H]1O[C@@H](O[C@@H]2[C@@H](O)[C@H](O[C@H]3CC[C@]4(C)[C@H]5CC=C6[C@@H]7CC(C)(C)CC[C@]7(C(=O)O)CC[C@@]6(C)[C@]5(C)CC[C@H]4C3(C)C)O[C@H](C(=O)O)[C@H]2O)[C@H](O)[C@H](O)[C@H]1O`, for which the Activity was 4 ppm.

For `CC1(C)CC[C@]2(C(=O)O)CC[C@]3(C)C(=CC[C@@H]4[C@@]5(C)CC[C@H](O[C@@H]6O[C@H](C(=O)O)[C@@H](O)[C@H](O[C@@H]7OC[C@@H](O)[C@H](O)[C@H]7O)[C@H]6O)C(C)(C)[C@@H]5CC[C@]43C)[C@@H]2C1`, the Activity is recorded as 4 ppm.

Turning to `CC1(C)CC[C@]2(C(=O)O)CC[C@]3(C)C(=CC[C@@H]4[C@@]5(C)CC[C@H](O[C@@H]6OC[C@@H](O)[C@H](O)[C@H]6O)C(C)(C)[C@@H]5CC[C@]43C)[C@@H]2C1`, the Activity is greater than 16 ppm.

On to `CC1(C)CC[C@]2(C(=O)O)CC[C@]3(C)C(=CC[C@@H]4[C@@]5(C)CC[C@H](O)C(C)(C)[C@@H]5CC[C@]43C)[C@@H]2C1` [OLEANOLIC_ACID], for which the Activity was found to be 0 ppm.
